Assays:
[1] = molecular target: T1, recombinant, human protein tyrosine phosphatase (PTP) 1B (hPTP1B) (Homo sapiens, UniProt P18031); experiment: Inhibition of tri-phosphorylated insulin receptor dodecaphosphopeptide dephosphorylation by hPTP1B; type: biochemical; conditions: 50 μM IR triphosphopeptide substrate, 5 min preincubation and 5 min reaction at 37° C., malachite green-ammonium molybdate phosphate detection
T1 construct: made in house
T1 sequence (P18031 1-435): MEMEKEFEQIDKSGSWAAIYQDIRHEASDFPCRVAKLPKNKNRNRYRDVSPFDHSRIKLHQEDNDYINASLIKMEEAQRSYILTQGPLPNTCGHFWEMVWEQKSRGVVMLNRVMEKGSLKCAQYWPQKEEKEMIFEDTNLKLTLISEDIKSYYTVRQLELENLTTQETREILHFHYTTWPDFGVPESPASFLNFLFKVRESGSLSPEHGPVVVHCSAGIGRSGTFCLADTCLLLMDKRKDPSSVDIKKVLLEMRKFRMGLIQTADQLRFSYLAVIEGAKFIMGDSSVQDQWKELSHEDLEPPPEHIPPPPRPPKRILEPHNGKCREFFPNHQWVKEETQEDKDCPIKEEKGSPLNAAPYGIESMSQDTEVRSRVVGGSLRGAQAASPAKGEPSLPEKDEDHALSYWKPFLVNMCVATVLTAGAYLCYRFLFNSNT

SMILES | IC50 [1] | melting point
Cc1cc(C)cc(-c2cc(C(=O)NCCCCCCCc3ccccc3)cc(-c3cc(C)cc(C)c3)c2OCCCC(=O)O)c1 [Example 148, 4-[3,5,3″,5″-Tetramethyl-5′-(7-phenyl-heptylcarbamoyl)-[1,1′:3′,1″]terphenyl-2′-yloxy]-butyric acid] | 249 nM | 64 to 66 °C
CCCCCCCCCCCCNC(=O)c1cc(Br)c(OCC(=O)O)c(-c2ccccc2F)c1 [Example 156, (3-Bromo-5-dodecylcarbamoyl-2′-fluoro-biphenyl-2-yloxy)acetic acid] | 278 nM | 128 to 138 °C
CCCCCCCCCCCCNC(=O)c1cc(-c2cc(Cl)cc(Cl)c2)c(OCC(=O)O)c(-c2cc(Cl)cc(Cl)c2)c1 [Example 159, (3,5,3″,5″-Tetrachloro-5′-dodecylcarbamoyl-[1,1′;3′,1″]terphenyl-2′-yloxy)acetic acid] | 44 nM | 139 to 144 °C
O=C(O)COc1c(-c2cc(Cl)cc(Cl)c2)cc(C(=O)NCCCCCCc2ccccc2)cc1-c1cc(Cl)cc(Cl)c1 [Example 161, [3,5,3″,5″-Tetrachloro-5′-(6-phenyl-hexylcarbamoyl)-[1,1′;3′,1″]terphenyl-2′-yloxy]acetic acid] | 33 nM | 151 to 159 °C
CCCCCCc1cc(-c2ccccc2)c(OCC(=O)O)c(-c2ccccc2)c1 [Example 169, (5′-Hexyl-[1,1′;3′,1″]terphenyl-2′-yloxy)acetic acid] | 905 nM | 87 to 89 °C
CCCCCCCCCc1cc(-c2ccccc2)c(OCC(=O)O)c(-c2ccccc2)c1 [Example 170, (5′-Nonyl-[1,1′;3′,1″]terphenyl-2′-yloxy)acetic acid] | 178 nM | 63 to 65 °C
CCCCCCCCCCCCCCOc1cc(-c2ccccc2)c(OCC(=O)O)c(-c2ccccc2)c1 [Example 173, (5′-Tetradecyloxy-[1,1′;3′,1″]terphenyl-2′-yloxy)acetic acid] | 28 nM | 89 to 90 °C
O=C(O)COc1c(-c2ccccc2)cc(C(c2ccccc2)(c2ccccc2)c2ccccc2)cc1-c1ccccc1 [Example 174, (5′-Trityl-[1,1′;3′,1″]terphenyl-2′-yloxy)acetic acid] | 633 nM | 211 to 214 °C

Continued, values first:

IC50 [1] | melting point | SMILES
246 nM | 139 to 144 °C | COc1ccc(-c2cc(C(=O)NCCCCCCCCc3ccccc3)cc(-c3cccc(C(F)(F)F)c3)c2OCC(=O)O)cc1 [Example 158, [4″-Methoxy-5′-(8-phenyl-octylcarbamoyl)-3-trifluoromethyl-[1,1′;3′,1″]terphenyl-2′-yloxy]acetic acid]
54 nM | 139 to 149 °C | O=C(O)COc1c(-c2cc(Cl)cc(Cl)c2)cc(C(=O)NCCCCCCCCc2ccccc2)cc1-c1cc(Cl)cc(Cl)c1 [Example 160, [3,5,3″,5″-Tetrachloro-5′-(8-phenyl-octylcarbamoyl)-[1,1′;3′,1″]terphenyl-2′-yloxy]acetic acid]
50 nM | 154.3 to 158.2 °C | CCCCCCCCCCCCNC(=O)c1cc(-c2cccc(C(F)(F)F)c2)c(OCC(=O)O)c(-c2cccc(C(F)(F)F)c2)c1 [Example 175, (5′-Dodecylcarbamoyl-3,3″-bis-trifluoromethyl-{1,1′;3′,1″]terphenyl-2′-yloxy)-acetic acid]
336 nM | 166.5 to 168.8 °C | O=C(O)COc1c(-c2cccc(C(F)(F)F)c2)cc(C(=O)NCCCCCCc2ccccc2)cc1-c1cccc(C(F)(F)F)c1 [Example 189, [5′-(6-Phenyl-hexylcarbamoyl)-3,3″-bis-trifluoromethyl-[1,1′:3′,1″}terphenyl-2′-yloxy]-acetic acid]
217 nM | 145.4 to 150.8 °C | O=C(NCCCCCCCCc1ccccc1)c1cc(-c2cccc(C(F)(F)F)c2)c(OCCCCc2nnn[nH]2)c(-c2cccc(C(F)(F)F)c2)c1 [Example 198]
